Reference: ChEMBL document CHEMBL1138897, “Function of the alkyl side chains of Deltalac-acetogenins in the inhibitory effect on mitochondrial complex I (NADH-ubiquinone oxidoreductase)” (Bioorg Med Chem Lett, 2006)

Molecular target: Mitochondrial complex I; NADH oxidoreductase (Bos taurus, UniProt P25708+P52505)
Assay: Inhibition of bovine mitochondrial NADH-ubiquinone oxidoreductase by NADH oxidase assay
Type: protein-complex assay

Mitochondrial complex I; NADH oxidoreductase, sequence (P25708 21-464 limits assumed, other chains not shown): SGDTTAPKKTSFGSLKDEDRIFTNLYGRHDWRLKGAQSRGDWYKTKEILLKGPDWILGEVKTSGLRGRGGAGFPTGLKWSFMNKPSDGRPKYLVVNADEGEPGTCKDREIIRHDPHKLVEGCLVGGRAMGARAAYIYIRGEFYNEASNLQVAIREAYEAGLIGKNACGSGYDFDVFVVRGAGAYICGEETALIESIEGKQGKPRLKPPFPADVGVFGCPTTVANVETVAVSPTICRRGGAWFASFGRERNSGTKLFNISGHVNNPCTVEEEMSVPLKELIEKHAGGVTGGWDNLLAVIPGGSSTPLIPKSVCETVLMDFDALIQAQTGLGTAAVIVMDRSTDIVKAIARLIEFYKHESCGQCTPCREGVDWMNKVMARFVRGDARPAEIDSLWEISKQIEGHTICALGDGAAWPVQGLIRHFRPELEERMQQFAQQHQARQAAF

Which IC50 does the source give for `CCCCCCCCCC[C@@H](O)[C@H]1CC[C@H]([C@H]2CC[C@H]([C@H](O)CCCCCC)O2)O1` here?
The IC50 was 3.2 nM.

`CCCCCCCCCCCCCC[C@@H](O)[C@H]1CC[C@H]([C@H]2CC[C@H]([C@H](O)CCCCCC)O2)O1` was tested. Which IC50 did it give?
The IC50 was 34 nM.

For `CCCCCCCC[C@@H](O)[C@H]1CC[C@H]([C@H]2CC[C@H]([C@H](O)CCCCCCCC)O2)O1`, which IC50 is on record?
The IC50 was 45 nM.

`CCCCCCCCCCCC[C@@H](O)[C@H]1CC[C@H]([C@H]2CC[C@H]([C@H](O)CCCCCCCCCCCC)O2)O1` was tested. Which IC50 did it give?
The IC50 was 9 nM.

For `CCCC(CCC)CCC[C@@H](O)[C@H]1CC[C@H]([C@H]2CC[C@H]([C@H](O)CCCC(CCC)CCC)O2)O1`, which IC50 is on record?
Its IC50 is 1500 nM.

How did the IC50 turn out when `CCCCCCCCCC[C@@H](O)[C@H]1CC[C@H]([C@H]2CC[C@H]([C@H](O)CCCC(CCC)CCC)O2)O1` was run?
The IC50 was 27 nM.

With `CCCCCCCCCC[C@@H](O)[C@H]1CC[C@H]([C@H]2CC[C@H]([C@H](O)CC)O2)O1` as the compound, how does the IC50 read?
The IC50 was 45 nM.

How did the IC50 turn out when `CCCCCCCCCC[C@@H](O)[C@H]1CC[C@H]([C@H]2CC[C@H]([C@H](O)CCCCCCCCCC)O2)O1` [dleta-lac-Acetogenin] was run?
The IC50 was 1.7 nM.

With `CCCCCCCCCCCC[C@@H](O)[C@H]1CC[C@H]([C@H]2CC[C@H]([C@H](O)CCCCCCCC)O2)O1` as the compound, how does the IC50 read?
Its IC50 is 7.5 nM.

Which IC50 does the source give for `CCCCC(CC)CCC[C@@H](O)[C@H]1CC[C@H]([C@H]2CC[C@H]([C@H](O)CCCC(CC)CCCC)O2)O1` (some centres not stated) here?
Its IC50 is 870 nM.

`CCCCCCCCCC[C@@H](O)[C@H]1CC[C@H]([C@H]2CC[C@H]([C@@H](C)O)O2)O1` was tested. Which IC50 did it give?
The IC50 was 280 nM.

How did the IC50 turn out when `CCCCCCCCCCCCCC[C@@H](O)[C@H]1CC[C@H]([C@H]2CC[C@H]([C@@H](C)O)O2)O1` was run?
Its IC50 is 410 nM.
